This is an account of results in patent US20260021046A1, “LIPID NANOPARTICLE AND PHARMACEUTICAL COMPOSITION” (NATIONAL UNIVERSITY CORPORATION HOKKAIDO UNIVERSITY, priority 2022, published 2026).

The subject of one series is SMO mRNA. The experiment in a line: In vivo SMO mRNA knockdown in liver tissue by qRT-PCR. More on the design: species or system mice. The conditions noted are these: SMO-siRNA lipid nanoparticles, 0.5 mg/kg RNA iv, 24 hours, versus HEPES buffer control. The method, then: TAA-induced liver fibrosis model mice were prepared in the same manner as in Example 1, and SMO-siRNA-encapsulated lipid nanoparticles were intravenously administered to the mice via the tail vein so that the amount of RNA per kg of body weight was 0.5 mg/kg. 24 hours after the administration, the mouse livers were collected. The ratio of the amount of SMO mRNA to the amount of GAPDH mRNA in the liver tissue was confirmed by qRT-PCR. The SMO gene is expressed only in hepatic stellate cells in the liver.
Next, a lipid composition containing CL15H6 and SMO-siRNA were mixed in different ratios to prepare lipid nanoparticles with different nitrogen/phosphate (N/P) ratios. Specifically, lipid nanoparticles were prepared with N/P ratios of 0.5, 1, 2, 4, 8, 12, 16, and 20. The prepared lipid nanoparticles were intravenously administered to mice with liver fibrosis so that the amount of RNA per kg of body weight was 0.5 mg/kg, and the ratio of the amount of SMO mRNA to the amount of GAPDH mRNA in the liver tissue was confirmed 24 hours later.
Next, the relationship between the dosage amount of SMO-siRNA and the ratio of the amount of SMO mRNA to the amount of GAPDH mRNA in the liver tissue was examined. For comparison, the relationship between the dosage amount of control siRNA (siCtrl) and the ratio of SMO mRNA to GAPDH mRNA in hepatic stellate cells was also examined.
Lipid nanoparticles encapsulating a mixture of the above SMO-siRNA and TGFβ1-siRNA at a ratio of 1:1 were prepared by using CL15H6, the above SMO-siRNA (SEQ ID NOs: 1 and 2) targeting the mRNA of the SMO gene and the TGFβ1-siRNA (SEQ ID NOS: 3 and 4) targeting the mRNA of the TGFβ1 gene and having the sequence shown in Table 4 below. The prepared lipid nanoparticles were intravenously administered to mice with liver fibrosis so that each of the amounts of SMO-siRNA and of TGFβ1-siRNA per kg of body weight was 0.25 mg/kg, and 24 hours later, the ratios of the amounts of SMO mRNA and of TGFβ1 mRNA to the amount of GAPDH mRNA in the liver tissue was confirmed.
(In qPCR the cycle at which signal appears reflects the starting amount.)

Another series relates to normal mice. The experiment in a line: Biological safety in normal mice (serum markers, histopathology). Format: in vivo. The conditions noted are these: CL15A6 lipid nanoparticles with EGFP mRNA, 2 mg/kg RNA iv, 24 hours. The method, then: In order to exclude the effects of liver fibrosis on hepatic function and tissues, the biosafety of the lipid nanoparticle prepared by using CL15A6 was evaluated in normal mice. Lipid nanoparticles containing EGFP mRNA were administered intravenously to mice at an amount of 2 mg/kg RNA per kg body weight. Twenty-four hours after the administration, the mice were euthanized, and serum and major organs were collected and analyzed in comparison with control mice treated with HEPES buffer. Aspartate transaminase (AST), alanine aminotransferase (ALT), and creatinine (CRE), which are functional markers of the liver or kidney, in plasma were colorimetrically quantified using a commercially available kit (Sigma-Aldrich), and the results were compared. In addition, the collected organs were fixed, stained with hematoxylin and eosin, and histopathologically evaluated as described in NPL 17. • [NPL 17] Mahmoud A. Younis, et al., “Ultra-small lipid nanoparticles encapsulating sorafenib and midkine-siRNA selectively-eradicate sorafenib-resistant hepatocellular carcinoma in vivo”, J Control Release, Vol. 331, pp. 335-349

In the case of `CCCCC/C=C\C/C=C\CCCCCCCCC(O)(CCCCCCCC/C=C\C/C=C\CCCCC)CCCCOC(=O)C1CCN(C)CC1` [CL15A6, (14z,17z)-5-hydroxy-5-((9z,12z)-octadeca-9,12-dien-1-yl)tricosa-14,17-dien-1-yl 1-methylpiperidine-4-carboxylate], the “amount of SMO mRNA (ratio to GAPDH mRNA) in liver tissue” value with SMO mRNA was “significantly reduced”. For the same molecule, in the series with normal mice, the ALT result was “no significant increases”; the AST entry is “no significant increases”; the CRE result is listed as “no significant increases”; the “histopathology of major organs (liver, lung, heart, and kidney)” value was “no signs of injury”.
